Values after ≈ are worked out from the molar mass of the structure shown. Where two headings read alike, the source gives them in different places.
Legend:
[1] = HTChem stab assay (chemical stability in buffer pH2, pH4 and pH7 vs DMSO reference); assay type: physicochemical
Procedure: HTChem stab assay was used to assess the chemical stability of the compounds. 72 h stirring at rt in a buffer pH2, pH4 and pH7 vs a reference DMSO solution. HTChem stab assay is based on the handbook of Pharmaceutical Stress Testing, Predicting Drug Degradation, second edition, authors Baertschi, Alsante, Reed ISBN 978-143980179-6.
Compounds were plated (1 μl 10 mM DMSO stock in 96 well plate (DMSO control+3 pH conditions), one plate per condition).
200 μL of respectively DMSO, Buffer/DMSO mix pH2, Buffer/DMSO mix pH4 and Buffer/DMSO mix pH7 was added.
After 72 h shaking (300 rpm) at room temperature the samples were analysed by LC/UV/MS. Chromatograms of samples (stability conditions) were compared with the chromatograms of control sample (DMSO). Extra peaks were flagged and identified by mass spectrometry. Sample purity (reference included) were reported.
• pH3 buffer: For 11; weigh 4.14 g NaH2PO4·H2O, add 600 ml H2O, add H3PO4 to pH3, add H2O to 1000 ml. Filter over 0.2 μm and store at 4° C. Expires after 30 days. • pH6 buffer: For 1 l; weigh 4.14 g NaH2PO4·H2O, add 600 ml H2O, add 1N NaOH to pH6, add H2O to 1000 ml. Filter over […] and store at 4° C. Expires after 30 days.
• pH2 Buffer/DMSO (StabSolvent): mix 2 parts of HCl 0.1N with 1 part of DMSO • pH4 Buffer/DMSO (StabSolvent): mix 2 parts of buffer pH3 with 1 part of DMSO • pH7 Buffer/DMSO (StabSolvent): mix 2 parts of buffer pH6 with 1 part of DMSO measure pH prior to use.
Instrument: Acquity UPLC; Column: Acquity HSS T3, 50 mm length×2.1 mm i.d., 1.8 μm particle size. Detectors: PDA (250-350 nm) and SQD2 (90-1500m/z). Mobile phase A: 0.1% Formic acid in water; Mobile phase B: 0.1% Formic acid in Acetonitrile.
Injection volume: 5 μL, flow rate 0.6 mL/min.
Data processing including peak integration and identification was done with Waters OpenLynx software.

[2] = Metabolic stability in liver microsomes (intrinsic clearance); assay type: in vitro ADME; conditions: for Metabolic Stability (liver microsome intrinsic clearance) Clearance (mouse, μl/min./mg protein) / Metabolic Stability Half life (mouse, min.): mouse liver microsomes
Outline: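 Compound (typically 1 μM) incubated at 37° C with liver microsomes (0.5 mg/ml protein) of selected species, 1 mM NADPH, 1 mM MgCl2, 0.1 M phosphate pH 7.4, sampled 0–60 min. Parent remaining measured by LC-MS/MS; t1/2 from log-linear slope, then Clint in μl/min/mg protein.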

[3] = tested on: Mycobacterium tuberculosis strain H37Rv; experiment: Test 2: MIC determination against M. tuberculosis, resazurin fluorescence; assay type: cell-based; conditions: Test 2, M. tuberculosis H37Rv; for MIC90: read-out: Bacterial activity MIC90
[4] = tested on: Salmonella typhimurium Ames II Mixed Strains (TA7001-TA7006) and TA98; experiment: Genotoxicity assay (AmesIIb mutagenicity test); assay type: cell-based; also: key: an AmesIIb score of 1 shows no genotoxicity signals
Excerpt: The aim is to evaluate compounds (and/or their metabolites) for their ability to induce reverse mutations in a gene of histidine-requiring Salmonella typhimurium strains to produce histidine-independent strains of these bacteria, in the absence and in the presence of a mammalian metabolic activation system.
Point mutations were made in the histidine (His) operon in Salmonella typhimurium, rendering the bacteria incapable of producing histidine. These single base substitutions are positioned at strategic points within the His gene, resulting in his-organisms that cannot grow unless histidine is supplied. When a mutagenic event occurs, base substitutions within the His gene then cause the reversion of the his-Ames II™ strains to His.
A chemical's mutagenic potential is assessed by exposing these his-organisms to varying concentrations of chemical and selecting for the reversion event. Medium lacking histidine is used for this selection which allows only those cells that have undergone the his- to His reversion to survive and grow.
The assay may be performed using a kit and instructions from Xenometric. The two strains provided in the Xenometric kit are the Ames II™ Mixed Strains and TA98. The Ames II™ Mixed Strains contains an equimolar mixture of the Ames II™ TA7001-TA7006 strains. Individually, these strains are designed to revert by only one specific base-pair substitution out of six possible changes. Thus, when mixed, all six base substitution mutations can be represented in one culture. This kit also contains TA98 for the detection of frameshift mutations.

[5] = buffer pH2/DMSO, 72 h stirring at rt
[6] = buffer pH4/DMSO, 72 h stirring at rt
[7] = buffer pH7/DMSO, 72 h stirring at rt
[8] = reference DMSO solution, 72 h stirring at rt

## CCc1nc2n(c1C(=O)NCc1ccc(-c3nc4n(n3)CCC(C(F)(F)F)C4)cc1)CCCC2 (racemic) [Compound 13ab]
[1]; [5]
  Chemical stability data, Buffer pH2: 100%
[1]; [6]
  Chemical stability data, Buffer pH4: 100%
[1]; [7]
  Chemical stability data, Buffer pH7: 100%
[1]; [8]
  Chemical stability data, Vehicle DMSO: 100%
[2]
  Metabolic Stability (liver microsome intrinsic clearance) Clearance (mouse, μl/min./mg protein): 15.5 μl/min./mg protein
  Metabolic Stability Half life (mouse, min.): 1.49 h
[3]
  Bacterial activity pMIC50: 8.067
  MIC90: 0.024 µM (≈ 0.0113 µg/mL)
[4]
  GeneTox AmesIIb Score: 1

## O=C(NCc1ccc(-c2nc3n(n2)CCC(C(F)(F)F)C3)cc1)c1c(C(F)F)nc2ccccn12 (racemic) [Compound 14ab]
[1]; [5]
  Chemical stability data, Buffer pH2: 100%
[1]; [6]
  Chemical stability data, Buffer pH4: 100%
[1]; [7]
  Chemical stability data, Buffer pH7: 100%
[1]; [8]
  Chemical stability data, Vehicle DMSO: 100%
[2]
  Metabolic Stability (liver microsome intrinsic clearance) Clearance (mouse, μl/min./mg protein): <7.7 μl/min./mg protein
  Metabolic Stability Half life (mouse, min.): >3 h
[3]
  Bacterial activity pMIC50: 7.877
  MIC90: 0.036 µM (≈ 0.0177 µg/mL)
[4]
  GeneTox AmesIIb Score: 1

## CCc1nc2ncccn2c1C(=O)NCc1ccc(-c2nc3n(n2)CCC(C(F)(F)F)C3)cc1 (racemic) [Compound 17ab]
[1]; [5]
  Chemical stability data, Buffer pH2: 100%
[1]; [6]
  Chemical stability data, Buffer pH4: 97%
[1]; [7]
  Chemical stability data, Buffer pH7: 100%
[1]; [8]
  Chemical stability data, Vehicle DMSO: 100%
[2]
  Metabolic Stability (liver microsome intrinsic clearance) Clearance (mouse, μl/min./mg protein): <7.7 μl/min./mg protein
  Metabolic Stability Half life (mouse, min.): >3 h
[3]
  Bacterial activity pMIC50: 7.526
  MIC90: 0.105 µM (≈ 0.0493 µg/mL)
[4]
  GeneTox AmesIIb Score: 1

## O=C(NCc1ccc(-c2cn3c(n2)CC(C(F)(F)F)CC3)cc1)c1c(C(F)(F)F)nc2ccccn12 (racemic) [Compound 18ab]
[1]; [5]
  Chemical stability data, Buffer pH2: 98%
[1]; [6]
  Chemical stability data, Buffer pH4: 100%
[1]; [7]
  Chemical stability data, Buffer pH7: 100%
[1]; [8]
  Chemical stability data, Vehicle DMSO: 98%
[2]
  Metabolic Stability (liver microsome intrinsic clearance) Clearance (mouse, μl/min./mg protein): 11.1 μl/min./mg protein
  Metabolic Stability Half life (mouse, min.): 2.08 h
[3]
  Bacterial activity pMIC50: 7.431
  MIC90: 0.142 µM (≈ 0.0721 µg/mL)
[4]
  GeneTox AmesIIb Score: 1

## Cc1cnc2nc(C3CC3)c(C(=O)NCc3ccc(-c4nc5n(n4)CCC(C(F)(F)F)C5)cc3)n2c1 (stereo not shown) [Compound 8ab]
[1]; 72 h, 50 µM
  Chemical stability data, Vehicle DMSO: 100%
[1]; 72 h, 50 µM, pH 2
  Chemical stability data, Buffer pH2: 100%
[1]; 72 h, 50 µM, pH 4
  Chemical stability data, Buffer pH4: 100%
[1]; 72 h, 50 µM, pH 7
  Chemical stability data, Buffer pH7: 100%
[3]; Mycobacterium tuberculosis, H37RV
  MIC90: 0.018 µM (≈ 0.00892 µg/mL)
[3]; Mycobacterium tuberculosis, H37RV, read-out: Bacterial activity pMIC50 (converted)
  IC50: 7110 pM
[4]; Salmonella typhimurium
  GeneTox AmesIIb Score: 1

## CCc1nc2ncc(NC(=O)OC(C)(C)C)cn2c1C(=O)NCc1ccc(-c2nc3n(n2)CCC(C(F)(F)F)C3)cc1 (stereo not shown) [Compound 194]
[2]; human liver microsomes
  Metabolic Stability (liver microsome intrinsic clearance) Clearance (human, μl/min./mg protein): <7.7 μl/min./mg protein
  Metabolic Stability Half life (human, min.): >3 h
[2]
  Metabolic Stability (liver microsome intrinsic clearance) Clearance (mouse, μl/min./mg protein): <7.7 μl/min./mg protein
  Metabolic Stability Half life (mouse, min.): >3 h
[3]
  Bacterial activity pMIC50: 7.43
  MIC90: 0.1 µM (≈ 0.0585 µg/mL)
[4]
  GeneTox AmesIIb Score: 1

## CCc1nc2nc(C)c(N(Cc3ccc(OC)cc3OC)C(=O)OC(C)(C)C)cn2c1C(=O)NCc1ccc(-c2nc3n(n2)CC[C@H](C(F)(F)F)C3)cc1 [Compound 196]
[2]
  Metabolic Stability (liver microsome intrinsic clearance) Clearance (mouse, μl/min./mg protein): <7.7 μl/min./mg protein
  Metabolic Stability Half life (mouse, min.): >3 h
[3]
  Bacterial activity pMIC50: 7.56
  MIC90: 0.067 µM (≈ 0.0502 µg/mL)
[4]
  GeneTox AmesIIb Score: 1

From patent US20250034171A1, “IMIDAZOPYRIDINE AMIDES AND RELATED COMPOUNDS FOR USE IN THE TREATMENT OF BACTERIAL INFECTIONS” (priority 2021, published 2025)
